Read-outs that look alike come from different tables or passages of the source.
Assays:
MRGPRX4 = MRGPRX4 (Homo sapiens, UniProt Q96LA9); assay: MRGPRX4 activation, Fluo-8 Ca2+ FLIPR assay in HEK293T cells stably expressing MRGPRX4; type: cell-based; set-up: key to MRGPRX4 activation, Average / MRGPRX4 activation, Ave.: fluorescence change dF/F0
Procedure, shortened: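 Cells seeded overnight to >95% confluence, loaded 40-60 min at room temperature with 2 μM Fluo-8 AM, then kept in HHBS. Baseline read 30 s, compound added, signal followed 150 s more.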

human FXR (NR1H4) = molecular target: T1, human FXR (NR1H4) (Homo sapiens, UniProt Q96RI1); assay: Human FXR (NR1H4) agonist assessment, FXRE-NanoLuc reporter in HEK293T cells; type: cell-based
T1 sequence (Q96RI1 1-476 isoform Q96RI1-1): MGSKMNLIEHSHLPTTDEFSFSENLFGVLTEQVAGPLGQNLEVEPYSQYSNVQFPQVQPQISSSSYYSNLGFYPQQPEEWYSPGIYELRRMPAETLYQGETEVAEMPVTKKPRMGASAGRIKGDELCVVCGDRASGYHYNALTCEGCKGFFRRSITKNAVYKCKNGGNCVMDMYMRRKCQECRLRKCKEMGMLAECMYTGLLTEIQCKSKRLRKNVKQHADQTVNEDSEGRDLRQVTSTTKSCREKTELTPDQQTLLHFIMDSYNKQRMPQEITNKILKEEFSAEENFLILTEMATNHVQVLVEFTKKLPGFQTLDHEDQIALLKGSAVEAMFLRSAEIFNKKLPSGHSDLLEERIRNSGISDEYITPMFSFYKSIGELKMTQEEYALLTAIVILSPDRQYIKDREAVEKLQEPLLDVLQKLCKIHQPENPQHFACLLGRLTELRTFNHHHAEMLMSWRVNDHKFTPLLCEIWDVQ
Procedure, shortened: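 HEK293T cells stably expressing human FXR with an FXRE-NanoLuc reporter were treated with compounds for 24 hr at 37 °C, with 0.01% DMSO as negative control. Medium was read for luminescence after 5 min with coelenterazine. EC50 was fitted by sigmoid to concentration-response data.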

[1] = MRGPRX4 activation, Ca2+ fluorescence, no activation in tested range reported as III, read-out: Activity (EC50 μM)
[2] = FXR activation, HEK293T FXRE-NanoLuc reporter, 24 hr
[3] = FXR activation, HEK293T FXRE-NanoLuc reporter, 24 hr, read-out: EC50

MRGPRX4, sequence (Q96LA9 whole entry): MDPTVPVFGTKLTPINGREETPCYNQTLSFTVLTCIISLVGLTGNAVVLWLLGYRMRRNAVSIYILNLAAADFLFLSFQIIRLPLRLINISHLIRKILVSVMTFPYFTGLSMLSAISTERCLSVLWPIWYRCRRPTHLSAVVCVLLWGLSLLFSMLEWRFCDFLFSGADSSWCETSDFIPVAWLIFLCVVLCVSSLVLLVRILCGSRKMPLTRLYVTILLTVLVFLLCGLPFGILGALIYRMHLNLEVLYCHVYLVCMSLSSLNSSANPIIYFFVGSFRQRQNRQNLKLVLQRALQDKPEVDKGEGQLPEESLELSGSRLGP

| SMILES | MRGPRX4 activation, fluorescence change (dF/F0), Average (MRGPRX4; Conc. (Log[M]) −4) | MRGPRX4 activation, fluorescence change (dF/F0), Average (MRGPRX4; Conc. (Log[M]) −4.5) | MRGPRX4 activation, fluorescence change (dF/F0), Average (MRGPRX4; Conc. (Log[M]) −5) | MRGPRX4 activation, fluorescence change (dF/F0), Average (MRGPRX4; Conc. (Log[M]) −5.5) | MRGPRX4 activation, fluorescence change (dF/F0), Average (MRGPRX4; Conc. (Log[M]) −6) | MRGPRX4 activation, fluorescence change (dF/F0), Average (MRGPRX4; Conc. (Log[M]) −7) | MRGPRX4 activation, fluorescence change (dF/F0), Average (MRGPRX4; Conc. (Log[M]) −8) | MRGPRX4 activation, fluorescence change (dF/F0), Average (MRGPRX4; Conc. (Log[M]) −9) | EC50 (MRGPRX4; [1]) [µM] | Efficacy (maximum measured induction of NanoLuc, normalized to CDCA set as 100%) (human FXR (NR1H4); [2]) | EC50 (human FXR (NR1H4); [3]) [µM] | MRGPRX4 activation, Average (MRGPRX4; E3-9, Conc. (Log[M]) −4.0) | MRGPRX4 activation, Average (MRGPRX4; E3-9, Conc. (Log[M]) −4.5) | MRGPRX4 activation, Average (MRGPRX4; E3-9, Conc. (Log[M]) −5.0) | MRGPRX4 activation, Average (MRGPRX4; E3-9, Conc. (Log[M]) −5.4) | MRGPRX4 activation, Average (MRGPRX4; E3-9, Conc. (Log[M]) −5.9) | MRGPRX4 activation, Average (MRGPRX4; E3-9, Conc. (Log[M]) −6.4) | MRGPRX4 activation, Average (MRGPRX4; E3-9, Conc. (Log[M]) −6.9) | MRGPRX4 activation, Average (MRGPRX4; E3-9, Conc. (Log[M]) −7.3) | MRGPRX4 activation, Average (MRGPRX4; E3-9, Conc. (Log[M]) −7.8) | other results |
| --- | --- | --- | --- | --- | --- | --- | --- | --- | --- | --- | --- | --- | --- | --- | --- | --- | --- | --- | --- | --- | --- |
| CC[C@H]1[C@@H](O)[C@@H]2[C@H](CC[C@]3(C)[C@@H]([C@H](C)CC(=O)O)CC[C@@H]23)[C@@]2(C)CCCC[C@@H]12 [compound 26] | −0.070 | −0.059 | −0.090 | −0.062 | −0.067 | −0.072 | −0.090 | −0.084 | > 100 | C (100%<efficacy <=300%) | > 10 |  |  |  |  |  |  |  |  |  |  |
| [2H]C1([2H])CC[C@@]2(C)[C@@H](C1)[C@@H](CC)[C@@H](O)[C@@H]1[C@@H]2CC[C@]2(C)[C@@H]([C@H](C)CCN=C=S)CC[C@@H]12 [14-2] |  |  |  |  |  |  |  |  |  | C (100%<efficacy <=300%) |  | 0.090 | 0.027 | 0.027 | 0.030 | 0.020 | 0.013 | 0.013 | 0.013 | 0.010 | EC50 (MRGPRX4): > 100 µM; MRGPRX4 activation, Average (MRGPRX4; E3-9, Conc. (Log[M]) −8.3): 0.010; EC50 (human FXR (NR1H4)): > 10 µM |
| CC[C@H]1[C@@H](O)[C@@H]2[C@H](CC[C@]3(C)[C@@H]([C@H](C)CCNC(=O)NS(=O)(=O)c4cccs4)CC[C@@H]23)[C@@]2(C)CCC(F)(F)C[C@@H]12 [10-4] |  |  |  |  |  |  |  |  | > 100 | C (100%<efficacy <=300%) | < 1 | −0.004 | 0.001 | 0.008 | 0.022 | 0.013 | 0.015 | 0.013 | 0.010 | 0.010 | MRGPRX4 activation, Average (MRGPRX4; E3-9, Conc. (Log[M]) −8.3): 0.020 |
| CC[C@H]1[C@@H](O)[C@@H]2[C@H](CC[C@]3(C)[C@@H]([C@H](C)CCNC(=O)NS(=O)(=O)c4ccc(C(C)(C)C#N)cc4)CC[C@@H]23)[C@@]2(C)CCCC[C@@H]12 [5-17] |  | 0.018 |  |  |  |  |  |  | > 100 | C (100%<efficacy <=300%) | < 1 |  |  |  |  |  |  |  |  |  | MRGPRX4 activation, fluorescence change (dF/F0), Average (MRGPRX4; Conc. (Log[M]) −4.0): 0.016; MRGPRX4 activation, fluorescence change (dF/F0), Average (MRGPRX4; Conc. (Log[M]) −5.0): 0.019; MRGPRX4 activation, fluorescence change (dF/F0), Average (MRGPRX4; Conc. (Log[M]) −5.4): 0.016; MRGPRX4 activation, fluorescence change (dF/F0), Average (MRGPRX4; Conc. (Log[M]) −5.9): 0.018; MRGPRX4 activation, fluorescence change (dF/F0), Average (MRGPRX4; Conc. (Log[M]) −6.4): 0.018; MRGPRX4 activation, fluorescence change (dF/F0), Average (MRGPRX4; Conc. (Log[M]) −6.9): 0.011; MRGPRX4 activation, fluorescence change (dF/F0), Average (MRGPRX4; Conc. (Log[M]) −7.3): 0.018; MRGPRX4 activation, fluorescence change (dF/F0), Average (MRGPRX4; Conc. (Log[M]) −7.8): 0.020; MRGPRX4 activation, fluorescence change (dF/F0), Average (MRGPRX4; Conc. (Log[M]) −8.3): 0.013 |
| CC[C@H]1[C@@H](O)[C@@H]2[C@H](CC[C@]3(C)[C@@H]([C@H](C)CCC(=O)NS(=O)(=O)CC)CC[C@@H]23)[C@@]2(C)CCCC[C@@H]12 [4-2] | 0.113 | −0.013 | −0.006 | 0.015 | −0.006 | 0.009 | 0.009 | 0.002 | > 100 | B (300%<efficacy <=400%) | < 1 |  |  |  |  |  |  |  |  |  |  |
